Experiment [1] deals with T1, ENaC (Homo sapiens, UniProt P37088+P51168+P51170).
T1 construct: host or cells: primary normal human bronchial epithelial cells, ALI culture
T1 sequence (P37088 1-669): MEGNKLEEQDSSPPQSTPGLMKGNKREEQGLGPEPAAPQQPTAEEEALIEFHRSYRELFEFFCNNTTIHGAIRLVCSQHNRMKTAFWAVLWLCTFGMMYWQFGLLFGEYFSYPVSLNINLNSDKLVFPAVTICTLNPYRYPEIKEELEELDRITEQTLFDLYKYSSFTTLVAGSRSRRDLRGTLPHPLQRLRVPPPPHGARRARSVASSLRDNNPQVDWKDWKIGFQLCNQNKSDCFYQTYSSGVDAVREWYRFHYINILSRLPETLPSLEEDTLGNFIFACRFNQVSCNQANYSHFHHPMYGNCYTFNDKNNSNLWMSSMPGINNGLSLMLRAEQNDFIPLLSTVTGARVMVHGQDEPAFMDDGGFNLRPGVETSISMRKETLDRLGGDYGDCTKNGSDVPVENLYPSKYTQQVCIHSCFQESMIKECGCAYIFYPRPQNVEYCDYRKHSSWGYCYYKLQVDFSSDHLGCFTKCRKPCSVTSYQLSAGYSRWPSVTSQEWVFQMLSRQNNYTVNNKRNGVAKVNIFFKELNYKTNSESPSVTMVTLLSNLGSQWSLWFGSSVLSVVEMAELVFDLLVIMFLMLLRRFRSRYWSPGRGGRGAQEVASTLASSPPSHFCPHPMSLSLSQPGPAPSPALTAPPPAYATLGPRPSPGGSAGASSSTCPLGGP
T1 sequence (P51168 1-640): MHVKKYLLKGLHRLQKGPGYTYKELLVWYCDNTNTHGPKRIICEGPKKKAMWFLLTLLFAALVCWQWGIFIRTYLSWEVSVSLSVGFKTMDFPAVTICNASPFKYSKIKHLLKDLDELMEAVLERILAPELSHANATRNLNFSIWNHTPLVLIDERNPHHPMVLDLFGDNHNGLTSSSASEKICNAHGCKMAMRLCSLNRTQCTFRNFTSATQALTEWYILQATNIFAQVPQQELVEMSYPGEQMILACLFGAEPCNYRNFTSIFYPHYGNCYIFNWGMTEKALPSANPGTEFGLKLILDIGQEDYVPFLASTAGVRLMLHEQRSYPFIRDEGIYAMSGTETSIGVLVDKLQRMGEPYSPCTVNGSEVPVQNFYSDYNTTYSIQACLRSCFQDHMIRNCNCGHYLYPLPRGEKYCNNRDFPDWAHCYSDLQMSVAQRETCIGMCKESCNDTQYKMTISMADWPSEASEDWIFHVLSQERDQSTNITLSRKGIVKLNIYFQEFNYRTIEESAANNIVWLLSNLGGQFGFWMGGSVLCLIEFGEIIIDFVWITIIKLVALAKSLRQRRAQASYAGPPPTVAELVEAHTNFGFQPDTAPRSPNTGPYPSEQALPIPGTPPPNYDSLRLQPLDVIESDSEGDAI
T1 sequence (P51170 1-649): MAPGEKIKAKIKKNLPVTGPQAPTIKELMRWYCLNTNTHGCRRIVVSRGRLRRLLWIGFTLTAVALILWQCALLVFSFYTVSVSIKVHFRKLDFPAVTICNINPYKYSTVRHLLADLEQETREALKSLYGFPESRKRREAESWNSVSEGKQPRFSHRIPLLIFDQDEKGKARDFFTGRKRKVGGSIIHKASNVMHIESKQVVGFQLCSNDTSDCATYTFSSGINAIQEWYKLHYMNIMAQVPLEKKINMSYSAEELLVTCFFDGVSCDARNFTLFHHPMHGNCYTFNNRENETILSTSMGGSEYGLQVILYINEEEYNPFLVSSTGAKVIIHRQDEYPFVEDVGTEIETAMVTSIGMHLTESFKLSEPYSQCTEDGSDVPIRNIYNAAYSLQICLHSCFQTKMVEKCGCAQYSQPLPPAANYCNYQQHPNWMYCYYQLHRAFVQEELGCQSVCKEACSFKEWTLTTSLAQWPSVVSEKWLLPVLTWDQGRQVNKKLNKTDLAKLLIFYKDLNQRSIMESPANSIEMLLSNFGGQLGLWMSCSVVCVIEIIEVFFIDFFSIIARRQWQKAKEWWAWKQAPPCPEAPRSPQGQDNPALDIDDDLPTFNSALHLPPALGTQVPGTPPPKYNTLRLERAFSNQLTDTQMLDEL
The experiment in a line: Ussing chamber short-circuit current (Isc) in normal HBEC ALI cultures from healthy donors. In kind it is cell-based. On the procedure:
(§1) Normal human bronchial epithelial cell (HBEC) cultures from healthy donors were procured from MatTek Corporation (Ashland, MA), grown at an ALI on Transwell permeable supports (0.4 µm polycarbonate membrane, 12 mm insert, and Costar Corning), and used to test the in vitro potency of AZD5634. Using the same protocol, sheep ALI cultures were prepared from primary bronchial epithelial cells (native sheep tracheas were obtained from Öströö Sheep Farm, Sweden, and internally processed at AstraZeneca R&D, Gothenburg, Sweden) to validate AZD5634 potency at sheep ENaC. Experiments were performed using modified Ussing chambers containing carboxygenated Krebs solution (95% O2-5% CO2) at 37°C. Cell layers were allowed to equilibrate before being voltage-clamped at 0 mV, and then briefly clamped at 10 mV to assess transepithelial electrical resistance.
All data are presented as means ± SE. Values of n refer to the number of cultures used in each group as appropriate. For normally distributed data, paired or unpaired Student’s t tests were used. For data that were not normally distributed, Mann–Whitney U test and Wilcoxon-matched pairs test were used. For comparisons of multiple groups, ANOVA tests were used followed by Tukey–Kramer multiple comparisons test (parametric) or ANOVA followed by Kruskal–Wallis test (nonparametric). For experiments using primary HBECs, a minimum of four different donors supplied cultures for each experiment. For the Ussing chamber data, unconstrained concentration–response curves were fitted using an in-house Microsoft Excel add-in package by nonlinear, four parameter, logistic regression analysis. From these curves, pEC50 and Emax values were taken from which mean values were calculated.

Experiment [2] relates to sheep ENaC. The experiment in a line: Ussing chamber short-circuit current (Isc) in sheep bronchial epithelial ALI cultures. In kind it is cell-based. The conditions noted are these: bronchial epithelial cells from healthy sheep, read-out: potency (IC50) on inhibition of ENaC (EC50 in Fig. 1B legend). On the procedure:
as §1
All data are presented as means ± SE. Values of n refer to the number of cultures used in each group as appropriate. For normally distributed data, paired or unpaired Student’s t tests were used. For data that were not normally distributed, Mann–Whitney U test and Wilcoxon-matched pairs test were used. […] From these curves, pEC50 and Emax values were taken from which mean values were calculated.

Turning to AZD5634, the “additional effect on Isc when benzamil was added” value in experiment [1] (benzamil 10 µM on final response plateau) is recorded as “No additional effect”. Moreover, the “potency of inhibition of amiloride-sensitive current (Isc) relative to amiloride” value in experiment [1] (non-CF and CF airway cells) is 2 to 3 logs. Besides, the concentration for half-maximal inhibition (IC50) in experiment [1] (normal HBEC ALI cultures, normalized to 10 µM benzamil = 100%, read-out: IC50 for decrease in Isc (EC50 in Fig. 1A legend)) came out at 3.8 nM; in experiment [2] it was 5.5 nM. In experiment [1] (normal HBEC cultures, Isc), the “potency shift versus benzamil” value is recorded as 1 log unit.

As a reminder, the IC50 is the concentration that inhibits the measured activity by half.
